From patent US10154974B1, “Use of abscisic acid for the prevention and treatment of malaria” (The Regents of the University of California, priority 2015, dated 2018) come the findings set out here.

The subject of series [1] is nitric oxide synthase (NOS). As to the kind of experiment: NOS transcript levels in mouse liver and spleen. It is filed as in vivo, mice. The following applies: day 7 of infection. The procedure: For mosquito immune gene expression, 20 midguts were dissected from mosquitoes in each treatment group at 1, 2, 4, 6, 8 and 24 hours post-feeding. Midguts were sonicated and stored in Trizol at −20° C. for up to a week before RNA was extracted according to manufacturer's instructions. cDNA synthesis was carried out using QantiTect Reverse Transcription Kit (Qiagen) and 200 ng of cDNA used per reaction for qRT-PCR with Sybr Green (Applied Biosystems). Fold changes in expression levels were calculated using the comparative threshold cycle method. Data were normalized to the housekeeping gene ribosomal protein S7 and to the control treatment. Primers and cycling conditions for AsNOS, defensin, LRIM, TEP1, and APL1 were as previously described (Hauck E S, et al. Microbes Infect. 2013; 15:775-87). For gene expression analysis of mouse liver and spleen, organs were flash frozen after necropsy and stored at −80° C. before RNA was extracted in Trizol and cDNA synthesized. Real-time PCR was performed using TaqMan probe-based expression assays for mouse NOS2, PPARγ (Mm00440940), and β-actin (Applied Biosystems) with volumes and cycling conditions as previously described (Chau et al., Infect Immun, 2013, 81:3515-26). Samples were analyzed in triplicate with 250 ng of cDNA per reaction to confirm uniformity of amplification. […] All expression data were analyzed by one sample t-test.

The test system of series [2] is prospero, escargot, ATG6, ATG8. As to the kind of experiment: Expression of midgut epithelial cell turnover genes. It is filed as in vivo, Anopheles stephensi. The following applies: P. falciparum-fed mosquito midguts. The procedure: Data are shown as fold changed compared to control-treated mosquitoes. Each dot represents one replicate of 10 pooled midguts. Data were analyzed by one sample t-test. * p<0.05. nd indicates the prospero was not detectable at 72 or 96 hours.

Series [3] is described as follows: ABA extraction from mouse plasma and quantification by ELISA. It is filed as in vivo, mice. How it is done: Mice were euthanized on day 7 post-infection. Blood was collected by heart puncture, spun at 8,000 rpm for 8 minutes and the plasma collected for ABA quantification. Livers and spleens were collected, retained in 10% formalin for 24 hours and then stored in 70% ethanol before sectioning and staining with hematoxylin and eosin. Liver sections were blindly scored on a scale from 0 to 3 for pigment levels, Kupffer cell density, portal tract inflammation, hemozoin deposition, extramedullary hematopoiesis, sinusoidal leukocyte density, sinusoidal adherence of leukocytes, and presence of microabscesses. Spleen sections were blindly scored on a scale from 0 to 3 for hyperplasia, extramedullary hematopoiesis, pigment, and levels of histiocytes and neutrophils. Pathology scores of control and treated mice were analyzed by unpaired t-test.
ABA was extracted from mouse plasma as described (Engelberth, J Vis Exp, 2009, 28:1127). Briefly, 50 μL of plasma was added to 200 μL extraction buffer (1-propanol:H2O:concentrated HCL at a 2:1:0.002 volume ratio) and vortexed. […] Dried samples were re-eluted in 100% methanol and ABA levels determined using the Phytodetek Abscisic Acid ELISA kit (Agdia) according to the manufacturer's instructions. ABA levels in the plasma of control and ABA-supplemented mice, 4-5 per group, were analyzed by Mann Whitney test.
For orientation: In an ELISA, binding on a coated surface is turned into a signal by an enzyme label.

In the next series the test system is TAK. As to the kind of experiment: TAK phosphorylation in mosquito midgut. The following applies: ABA-supplemented parasite-fed mosquito midguts. The format is in vivo, Anopheles stephensi. The procedure:
FIG. 11A-D illustrate that ABA decreases P. falciparum infection by increasing TAK phosphorylation. […] Each dot represents one replicate of 15 pooled midguts. […] Phosphorylated TAK levels were analyzed by one sample t-test, NOS expression by Wilcoxon matched-pairs signed rank test, and infection prevalence by Fisher's exact test. * p<0.05.

On to `CC1=CC(=O)CC(C)(C)[C@@]1(O)/C=C/C(C)=C\C(=O)O` (racemic) [ABA, (2Z,4E)-5-[(1S)-1-hydroxy-2,6,6-trimethyl-4-oxocyclohex-2-en-1-yl]-3-methylpenta-2,4-dienoic acid], for which, in series [1], the “transcript levels of nitric oxide synthase (NOS)” value was “decreased”. Besides, in series [2], the “expression of genes involved in midgut epithelial cell turnover” value is “reduces expression”. Further, the “increase of ABA levels in plasma” value in series [3] (P. yoelii infection, vs non-supplemented infected mice) is “over 6 fold”. Also, in series [3] (oral supplementation, absence of infection), the “ABA levels in plasma” value is reported as “did not alter”. In the series with TAK, the TAK phosphorylation entry is listed as “increasing”.
